Experimental data from PubChem BioAssay AID651797 (The Scripps Research Institute Molecular Screening Center, 2012).
The source made the active and inactive calls. The rule behind the calls is not given here.

Biological target: Nuclear receptor coactivator 3 (Homo sapiens) (UniProt Q9Y6Q9)
Test: NCOA3-driven reporter transcription inhibition – cell-based, luminescence reporter, selectivity assay for SRC1 inhibitor project, late-stage follow-up (AID 651797)
Settings: human cells, SRC3 luminescence reporter, dose response

Sequence of Nuclear receptor coactivator 3 (Homo sapiens) (Q9Y6Q9 whole entry, looked up): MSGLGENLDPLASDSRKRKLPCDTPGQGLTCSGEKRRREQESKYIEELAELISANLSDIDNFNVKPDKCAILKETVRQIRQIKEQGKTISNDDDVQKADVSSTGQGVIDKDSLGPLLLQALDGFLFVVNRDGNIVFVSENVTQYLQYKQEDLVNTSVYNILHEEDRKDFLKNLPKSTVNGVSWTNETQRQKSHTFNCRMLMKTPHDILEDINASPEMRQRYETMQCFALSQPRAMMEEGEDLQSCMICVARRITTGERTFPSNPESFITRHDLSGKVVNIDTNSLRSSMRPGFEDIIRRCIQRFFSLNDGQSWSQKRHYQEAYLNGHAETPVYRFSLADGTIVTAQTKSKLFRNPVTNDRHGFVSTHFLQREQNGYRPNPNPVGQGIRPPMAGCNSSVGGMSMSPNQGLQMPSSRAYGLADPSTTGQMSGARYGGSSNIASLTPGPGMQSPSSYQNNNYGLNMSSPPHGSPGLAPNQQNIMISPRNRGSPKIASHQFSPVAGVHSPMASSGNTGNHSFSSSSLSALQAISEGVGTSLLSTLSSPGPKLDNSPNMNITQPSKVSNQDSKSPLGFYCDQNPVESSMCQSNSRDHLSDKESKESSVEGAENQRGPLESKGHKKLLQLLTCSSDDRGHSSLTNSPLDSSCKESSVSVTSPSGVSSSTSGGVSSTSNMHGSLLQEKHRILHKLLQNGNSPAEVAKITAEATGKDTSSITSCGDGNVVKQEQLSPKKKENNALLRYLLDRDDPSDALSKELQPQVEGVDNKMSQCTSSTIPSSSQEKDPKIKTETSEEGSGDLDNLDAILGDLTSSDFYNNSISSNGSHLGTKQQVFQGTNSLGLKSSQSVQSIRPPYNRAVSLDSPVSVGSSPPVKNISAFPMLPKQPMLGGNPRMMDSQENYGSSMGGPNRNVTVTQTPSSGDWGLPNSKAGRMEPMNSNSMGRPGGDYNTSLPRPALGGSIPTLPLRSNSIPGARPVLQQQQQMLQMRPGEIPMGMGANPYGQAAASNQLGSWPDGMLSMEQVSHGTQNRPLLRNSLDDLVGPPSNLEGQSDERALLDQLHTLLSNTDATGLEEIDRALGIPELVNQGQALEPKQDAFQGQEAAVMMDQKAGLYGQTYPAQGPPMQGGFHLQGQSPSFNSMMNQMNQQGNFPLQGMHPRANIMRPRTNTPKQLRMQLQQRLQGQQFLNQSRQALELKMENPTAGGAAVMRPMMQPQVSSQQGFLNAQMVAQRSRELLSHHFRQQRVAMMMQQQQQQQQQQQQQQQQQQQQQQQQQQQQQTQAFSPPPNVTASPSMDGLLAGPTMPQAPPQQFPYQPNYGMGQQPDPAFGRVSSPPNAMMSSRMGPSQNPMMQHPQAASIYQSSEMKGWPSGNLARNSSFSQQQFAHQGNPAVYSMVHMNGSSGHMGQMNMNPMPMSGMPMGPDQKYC

IC50	Compound
0.69 µM	COc1cc([C@@H]2c3cc4c(cc3C(OC3OC5COC(C)OC5C(O)C3O)C3COC(=O)[C@@H]32)OCO4)cc(OC)c1O (stereo partly drawn)
8.22 µM	COc1ccc(NC(=O)CN(C)C(=O)C2(c3ccccc3)CCCC2)cc1
inactive	COc1ccc(Nc2ncnc3ccc(Br)cc23)c(OC)c1
